# Key:
# [1] = Human liver microsome (HLM) assay; assay type: in vitro ADME; conditions: human liver microsomes
# Protocol: Compound metabolism in human liver microsomes was measured by LC-MS analytical assay procedures as follows. First, human liver microsomes (HLM) were thawed and diluted to 5 mg/mL with cold 100 mM potassium phosphate (KPO4) buffer. Appropriate amounts of KPO4 buffer, NADPH-regenerating solution (containing B-NADP, glucose-6-phosphate, glucose-6-phosphate dehydrogenase, and MgCl2), and HLM were preincubated in 13×100 mm glass tubes at 37° C. for 10 min. (3 tubes per test compound—triplicate). Test compound (5 μM final) was added to each tube to initiate reaction and was mixed by gentle vortexing, followed by incubation at 37° C. […] Samples were centrifuged at 4000 rpm for 20 min. to precipitate proteins and salt (Beckman Allegra 6KR, S/N ALK98DO6, #634). Supernatant was transferred to new 12×75 mm glass tubes and evaporated by Speed-Vac centrifugal vacuum evaporator. Samples were reconstituted in 200 μL 0.1% formic acid/acetonitrile (90/10) and vortexed vigorously to dissolve. The samples were then transferred to separate polypropylene microcentrifuge tubes and centrifuged at 14000×g for 10 min. (Fisher Micro 14, S/N M0017580). […]
# The combined compound samples were injected into the LC-MS system, composed of a Hewlett-Packard HP1100 diode array HPLC and a Micromass Quattro II triple quadruple mass spectrometer operating in positive electrospray SIR mode (programmed to scan specifically for the molecular ion of each test compound). Each test compound peak was integrated at each timepoint. […]
# [2] = Mouse PK assay; assay type: in vivo, B6 female mice; conditions: po; for AUC / Cmax: female, B6, mouse, plasma, 50 mg/kg; for Cmax: p.o., read-out: Mouse Cmax, po ng-h/mL
# In short: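 Plasma levels were measured by HPLC with UV detection after acetonitrile precipitation, using extracted standards, in blood taken up to 4 h (0.5, 1, 2, 4 h) post-dose. Dosing: 50 mg/kg orally or intraperitoneally to two groups of four female B6 mice, vehicle PEG 400:acidified H2O 30:70 suspension.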
# [3] = target: T1, unphosphorylated VEGF-R2Δ50 (FLVK) (Homo sapiens, UniProt P35968, DEL940-989/E990V); experiment: VEGF-R2 coupled spectrophotometric assay, unphosphorylated construct (FLVK); assay type: biochemical; conditions: for inhibition at 0.05 µM: percent inhibition at 50 nM
# T1 construct: VEGF-R2Δ50 contains residues 806-939 and 990-1171; made in house; host or cells: baculovirus/insect cell system
# T1 sequence (P35968 with tags, fused parts or gaps DEL940-989/E990V limits assumed): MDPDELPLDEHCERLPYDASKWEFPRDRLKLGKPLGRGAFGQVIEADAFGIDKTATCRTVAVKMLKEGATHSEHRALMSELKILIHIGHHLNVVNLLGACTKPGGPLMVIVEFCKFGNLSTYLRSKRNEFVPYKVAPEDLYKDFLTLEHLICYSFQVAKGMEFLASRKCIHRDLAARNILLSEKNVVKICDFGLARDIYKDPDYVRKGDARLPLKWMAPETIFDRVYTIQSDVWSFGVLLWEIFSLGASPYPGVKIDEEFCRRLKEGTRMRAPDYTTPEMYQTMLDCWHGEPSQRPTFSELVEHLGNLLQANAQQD
# In short: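 Human VEGF-R2Δ50 cytosolic kinase (residues 806-939/990-1171, E990V), baculovirus-expressed, unphosphorylated form. PK/LDH-coupled NADH oxidation at 340 nm with 20 mM poly(E4Y1), 3 mM ATP, 60 mM MgCl2, 2 mM MnCl2, 200 mM HEPES pH 7.5, 5-40 nM enzyme; Ki fitted by Morrison equation.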
# [4] = tested on: human umbilical vein endothelial cells (HUVEC); experiment: HUVEC+VEGF proliferation assay; assay type: cell-based; conditions: Homo sapiens, HUVEC, 72 h, VEGF 6 ng/mL, MTT
# In short: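 HUVEC (passage 3-4), serum-starved 24 h in F12K + 1% FBS, were pre-treated with compound for 1 h (0.1% DMSO final). They were then stimulated with VEGF at 6 ng/mL final. Proliferation was measured after 72 h by MTT dye reduction (4 h), with absorbance read at 595 nm.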
"% remain (HLM-NADPH, 0.5 h) [1] [%]","% remain (HLM-UDPGA, 0.5 h) [1] [%]",AUC [2] [ng·h/mL],Cmax [2] [ng/mL],"Mouse Cmin, po [2] [ng/mL]",inhibition at 0.05 µM [3] [%],Ki [3] [nM],SMILES,IC50 [4] [nM]
70.9,119.4,10600,7700,163,2,,"Cc1cc2cc(Nc3ccnc4cc(-c5nccn5C)sc34)ccc2n1C(=O)NC(C)C [Example 2f, 5-(2-[1-methyl-1H-imidazol-2-yl]thieno[3,2-b]pyridin-7-ylamino)-2-methylindole-1-carboxylic acid isopropylamide]",
106,113.4,542,252,6,82,29.6,"Cc1cc2cc(Nc3ccnc4cc(C(=O)N5CCC[C@H]5CO)sc34)ccc2n1C(=O)NC(C)C [Example 2g, 5-(2-[(S)-2-(hydroxymethyl)pyrrolidine-1-carbonyl]thieno[3,2-b]pyridin-7-ylamino)-2-methylindole-1-carboxylic acid isopropylamide]",> 33.3

# Source: patent US6833456B2, “Indolyl-urea derivatives of thienopyridines useful as antiangiogenic agents, and methods for their use” (Agouron Pharmaceuticals, Inc., priority 2002, dated 2004)
